Starred links: 1 amine or outer side, 2 acyl side, 3 side chain; linkers in the order of their positions; H or OH if unused. Positions of bridges follow the written chain, without caps; N, C: chain ends. Non-standard residues stand in square brackets, D forms with d. Residues, ends and D or L forms follow the SMILES beside them. *: point of attachment. hPhe(3-Cl-4-CF3) = N[C@@H](CCc1ccc(C(F)(F)F)c(Cl)c1)C(=O)O; hPhe(3-F,4-CF3) = N[C@@H](CCc1ccc(C(F)(F)F)c(F)c1)C(=O)O; NMePhe(4-CF3) = CN[C@@H](Cc1ccc(C(F)(F)F)cc1)C(=O)O; 3Oxa8azabicyclo(3.2.1)octane = C1CC2COCC1N2*; NMePhe(4-Me) = CN[C@@H](Cc1ccc(C)cc1)C(=O)O; NMePhe(4-F) = CN[C@@H](Cc1ccc(F)cc1)C(=O)O; NMedβ3hAla = C[C@H](CC(=O)[*:2])N(C)[*:1]; NMeAla(cPent) = CN[C@@H](CC1CCCC1)C(=O)O; NMeGly(cPent) = CN[C@H](C(=O)O)C1CCCC1; NMeCha = CN[C@@H](CC1CCCCC1)C(=O)O; Hyp = O=C(O)[C@@H]1C[C@@H](O)CN1; NEtLeu = CCN[C@@H](CC(C)C)C(=O)O; NMeAhp(2) = CCCCC[C@H](NC)C(=O)O; NMeI = CC[C@H](C)[C@H](NC)C(=O)O; NMeD = CN[C@@H](CC(=O)O)C(=O)O; NMeL = CN[C@@H](CC(C)C)C(=O)O; NMeAc5c = CNC1(C(=O)O)CCCC1; NMeNva = CCC[C@H](NC)C(=O)O; NMeV = CN[C@H](C(=O)O)C(C)C; d(β3hA) = C[C@@H](N)CC(=O)O; NMeS = CN[C@@H](CO)C(=O)O; Morpholide = C1CN(*)CCO1; NMeA = CN[C@@H](C)C(=O)O; Piperidide = C1CCN(*)CC1; Ac5c = NC1(C(=O)O)CCCC1; Aze = O=C(O)[C@@H]1CCN1; Sar = CNCC(=O)O; Propyl = CCC*
test system: Human pancreatic cancer cell line AsPC-1; assay: Measurement of AsPC-1 cell growth inhibition (AsPC-1 CGI); assay type: cell-based; details: 96 h
How it was run: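 AsPC-1 cells in 15% FBS RPMI-1640 were exposed to test compound for 96 hours at 37° C, with CellTiter-Glo as endpoint.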

Row | SMILES | IC50
1 | CC[C@H](C)[C@@H]1NC(=O)[C@H](C(C)C)N(C)C(=O)C[C@@H](C(=O)N2CCCCC2)N(C)C(=O)[C@H](C(C)C)N(C)C(=O)C2(CCCC2)NC(=O)[C@@H]2CCCN2C(=O)[C@H](CCc2ccc(C(F)(F)F)c(Cl)c2)NC(=O)CN(C)C(=O)[C@H](CC2CCCCC2)N(C)C(=O)[C@@H]2CCN2C(=O)[C@H](C)N(C)C1=O [Compound 1767] ([NMeV]I[NMeA][Aze][NMeCha][Sar][hPhe(3-Cl-4-CF3)]P[Ac5c][NMeV][NMeD]-Piperidide; lactam N-11) | 100 to 500 nM
2 | CC[C@H](C)[C@@H]1NC(=O)[C@H](CC(C)C)N(CC)C(=O)C[C@@H](C)NC(=O)[C@H](C2CCCC2)N(C)C(=O)C2(CCCC2)NC(=O)[C@@H]2CCCN2C(=O)[C@H](CCc2ccc(C(F)(F)F)c(Cl)c2)NC(=O)CN(C)C(=O)[C@H](Cc2ccc(C)cc2)N(C)C(=O)[C@@H]2CCN2C(=O)[C@H](C)N(C)C1=O [Compound 531] (cyclo([Ac5c][NMeGly(cPent)][d(β3hA)][NEtLeu]I[NMeA][Aze][NMePhe(4-Me)][Sar][hPhe(3-Cl-4-CF3)]P)) | 20 to 50 nM
3 | CC[C@H](C)[C@@H]1NC(=O)[C@H](C)N(C)C(=O)C[C@@H](C)NC(=O)[C@H](C2CCCC2)N(C)C(=O)C2(CCCC2)NC(=O)[C@@H]2CCCN2C(=O)[C@H](CCc2ccc(C(F)(F)F)c(Cl)c2)NC(=O)CN(C)C(=O)[C@H](Cc2ccc(C(F)(F)F)cc2)N(C)C(=O)[C@@H]2CCN2C(=O)[C@H](C)N(C)C1=O [Compound 1512] (cyclo([Ac5c][NMeGly(cPent)][d(β3hA)][NMeA]I[NMeA][Aze][NMePhe(4-CF3)][Sar][hPhe(3-Cl-4-CF3)]P)) | 50 to 100 nM
4 | CCO[C@@H]1C[C@H]2C(=O)NC3(CCCC3)C(=O)N(C)[C@@H](CC(C)C)C(=O)N(C)[C@H](C(=O)N3CCOCC3)CC(=O)N(C)[C@@H](CC(C)C)C(=O)N[C@@H]([C@@H](C)CC)C(=O)N(C)CC(=O)N(C)CC(=O)N(C)[C@@H](CC3CCCCC3)C(=O)N(C)CC(=O)N[C@@H](CCc3ccc(C(F)(F)F)c(Cl)c3)C(=O)N2C1 [Compound 1785] ([NMeL]I[Sar][Sar][NMeCha][Sar][hPhe(3-Cl-4-CF3)][Hyp](Et)[Ac5c][NMeL][NMeD]-Morpholide; lactam N-11) | 50 to 100 nM
5 | CC[C@H](C)[C@@H]1NC(=O)[C@H](CC(C)C)N(C)C(=O)C[C@@H](C(=O)N2CCCCC2)N(C)C(=O)[C@H]([C@@H](C)CC)N(C)C(=O)C2(CCCC2)NC(=O)[C@@H]2CCCN2C(=O)[C@H](CCc2ccc(C(F)(F)F)c(Cl)c2)NC(=O)CN(C)C(=O)[C@H](Cc2ccc(F)cc2)N(C)C(=O)[C@@H]2CCN2C(=O)[C@H](C)N(C)C1=O [Compound 1060] ([NMeL]I[NMeA][Aze][NMePhe(4-F)][Sar][hPhe(3-Cl-4-CF3)]P[Ac5c][NMeI][NMeD]-Piperidide; lactam N-11) | 20 to 50 nM
6 | CC[C@H](C)[C@@H]1NC(=O)[C@H](CC(C)C)N(C)C(=O)C[C@@H](C)N(C)C(=O)[C@H](CC(C)C)NC(=O)C2(CCCC2)N(C)C(=O)[C@H](CC(C)C)NC(=O)[C@H](CCc2ccc(C(F)(F)F)c(F)c2)NC(=O)CN(C)C(=O)[C@H](CC2CCCCC2)N(C)C(=O)CN(C)C(=O)CN(C)C1=O [Compound 2] (cyclo(I[Sar][Sar][NMeCha][Sar][hPhe(3-F,4-CF3)]L[NMeAc5c]L[NMedβ3hAla][NMeL])) | 100 to 500 nM
7 | CCC[C@H]1C(=O)N[C@@H]([C@@H](C)CC)C(=O)N(C)[C@@H](C)C(=O)N2CC[C@H]2C(=O)N(C)[C@@H](CC2CCCCC2)C(=O)N(C)CC(=O)N[C@@H](CCc2ccc(C(F)(F)F)c(Cl)c2)C(=O)N2CCC[C@H]2C(=O)NC2(CCCC2)C(=O)N(C)[C@@H](C(C)C)C(=O)N(C)[C@H](C(=O)N2CCCCC2)CC(=O)N1C [Compound 1639] ([NMeNva]I[NMeA][Aze][NMeCha][Sar][hPhe(3-Cl-4-CF3)]P[Ac5c][NMeV][NMeD]-Piperidide; lactam N-11) | 100 to 500 nM
8 | CCCCC[C@H]1C(=O)N[C@@H]([C@@H](C)CC)C(=O)N(C)[C@@H](C)C(=O)N2CC[C@H]2C(=O)N(C)[C@@H](COCCC)C(=O)N(C)CC(=O)N[C@@H](CCc2ccc(C(F)(F)F)c(Cl)c2)C(=O)N2CCC[C@H]2C(=O)NC2(CCCC2)C(=O)N(C)[C@@H](C2CCCC2)C(=O)N(C)[C@H](C(=O)N2C3CCC2COC3)CC(=O)N1C [Compound 622] ([NMeAhp(2)]I[NMeA][Aze][NMeS](Propyl)[Sar][hPhe(3-Cl-4-CF3)]P[Ac5c][NMeGly(cPent)][NMeD]-{3Oxa8azabicyclo(3.2.1)octane}; lactam N-11) | 20 to 50 nM
9 | CC[C@H](C)[C@@H]1NC(=O)[C@H](CC2CCCC2)N(C)C(=O)C[C@@H](C(=O)N2CCCCC2)N(C)C(=O)[C@H](C(C)C)N(C)C(=O)C2(CCCC2)NC(=O)[C@@H]2CCCN2C(=O)[C@H](CCc2ccc(C(F)(F)F)c(Cl)c2)NC(=O)CN(C)C(=O)[C@H](CC2CCCCC2)N(C)C(=O)[C@@H]2CCN2C(=O)[C@H](C)N(C)C1=O [Compound 37] ([NMeAla(cPent)]I[NMeA][Aze][NMeCha][Sar][hPhe(3-Cl-4-CF3)]P[Ac5c][NMeV][NMeD]-Piperidide; lactam N-11) | 100 to 500 nM

From patent US12371454B2, “Cyclic peptide compound having Kras inhibitory action” (priority 2019, dated 2025)
